Measurements: a melting point compilation (Tetko et al.; mined from patent text by program, amines drawn as free bases though some values may be those of a salt)

Compound | melting point [°C]
Cc1cc(-n2ccc(OCCCO)cc2=O)sc1C(=O)NCc1cccc(F)c1 | 135 to 137
CCOC(=O)C1C2CCC(=O)C21 (stereo not given) | 36 to 38
C=CCCOc1ccc(C[C@H](NC(=O)OC(C)(C)C)C(=O)N[C@@H](CC(C)C)C(=O)O)cc1 | 68 to 70
Cc1ccc(S(=O)(=O)N2C=Cc3cccc(-n4cccc4)c3C2C#N)cc1 (stereo not given) | 160
CC(C)(C)OC(=O)N1CCCN(c2ccc([N+](=O)[O-])cc2C#N)CC1 | 98
CCCCCC(O)c1cccc(OCc2cccc(CC(=O)O)c2)c1 (stereo not given) | 111 to 113
COC(=O)c1cc(OCc2ccccc2)nn1C(C)C | 73 to 74
N#Cc1ccc(NC(=O)c2cccc(OCc3ccc(Cl)cn3)c2)cc1 | 168 to 169
Cc1cc(C)nc(N(CCN(C)C)C(N)=O)c1 | 88 to 89
O=C(CC(c1ccc(OC(F)F)c(OCC2CC2)c1)N1C(=O)c2ccccc2C1=O)NO (stereo not given) | 129 to 131
CN(C)c1cccc(CC(=O)C(F)(F)c2ccccc2)c1 | 76 to 77
COc1ccc(COc2nn(Cc3ccccc3)cc2C=O)cc1OCc1nc(-c2ccco2)oc1C | 142 to 143
CS(=O)(=O)c1ccc(-c2onc3c2-c2ccccc2CC3)cc1 | 181 to 182
COCCOc1ccc(CCCNS(=O)(=O)c2ccccc2)c(Oc2ncc(C(F)(F)F)cc2Cl)c1 | 94 to 95
Cc1cc(C)c2c(c1)C(=O)C1(CCNCC1)CC2 | > 260
CCN1CCC(c2ccccc2)=C(C(=O)OCC2CCCCC2)C1 | 94 to 97
Nc1ccc(C=Cc2cc(=O)cc(-c3ccccc3)o2)cc1 | 192 to 194
Cc1cccc(NC(=O)OC(C)(C)C)c1CNc1cccn2c(C=O)c(C)nc12 | 210 to 212
Cc1nc(N2CCCC2C)c2nc(-c3ccccc3)cc-2[nH]1 (stereo not given) | 219 to 221
CN1CCN(C2=Nc3cc(F)ccc3Nc3nn(C)nc32)CC1 | 195 to 197
CSc1cc(S(F)(F)(F)(F)F)ccc1C(=O)O | 150 to 152
NC(=O)N1C(=O)C(C(=O)c2cccs2)c2ncc(F)cc21 (stereo not given) | 265
CC(C)(C)Cc1ccc2c(c1)C(=O)c1ccccc1C2=O | 93.8
CC(O)c1ccc(Cc2c(Cl)cc(N3N=CCNC3=O)cc2Cl)cc1 (stereo not given) | 119 to 120
COc1ccc2cc(CO)ccc2c1Br | 85 to 87

Compound | melting point [°C]
CS(=O)(=O)CCC(=O)NCc1ccc(/C=C/C(c2cc(Cl)c(Cl)c(Cl)c2)C(F)(F)F)cc1Cl (stereo not given) | 101 to 104
COC(=O)c1ccc(-c2cc(C(=O)NC3CC3)cc(F)c2C)c(C(=O)O)c1 | 217 to 222
CCCCCCSc1[nH]c2cccc3c2c1CC1C3C=C(C)CN1C (stereo not given) | 199 to 201
C=C(C)C(C)n1c(=O)c(C(C)C)cc2c3c(cc(C)c21)C(C)C(C)(CI)O3 (stereo not given) | 191 to 192
CC(=O)C1Cc2ccc(O)c(O)c2C1=O (stereo not given) | 159 to 160
CN(C(N)=O)c1cc(C(C)(C)C)on1 | 134 to 135
CC1(C)SC(c2ccco2)NC1C(=O)O (stereo not given) | 141 to 143
CCc1c(C)nc2ccc(C)cn2c1=O | 154 to 156
O=Cc1cc(-c2ccc3nnn(Cc4ccc5ncccc5c4)c3n2)cs1 | 195 to 197
CCOC(=O)CCCCCOc1ccc(C(=O)Nc2ccccc2S(=O)(=O)c2ccccc2-c2nnn[nH]2)cc1 | 180 to 181
CCOC(=O)c1c(C)nc2sc3c(c2c1-c1ccccc1)CCCC3 | 118 to 120
O=C1CC2SCCCN12 (stereo not given) | 145 to 147
O=C1Nc2ccc(F)cc2C1CCCCN1CCN(c2ccccn2)CC1 (stereo not given) | 132 to 134
COc1ccc2cccc(C(=O)C(N)=O)c2c1 | 112
CC1(c2ccc(Oc3nc4ccc(Cl)cc4s3)cc2)OC(=O)N(Nc2ccccc2)C1=O (stereo not given) | 207 to 209
CCCCc1ncc(/C(C)=C(\Cc2cccs2)C(=O)O)n1Cc1ccc(C#N)cc1 | 210 to 212
CCCCCc1c(C(C)C)nc(C(C)C)c(CNC)c1-c1ccc(F)cc1 | 77 to 79
CC(C#N)(CNC(=O)c1nn(C2CCCCO2)cc1NC(=O)c1ccccn1)Cc1ccccc1 (stereo not given) | 187 to 190
Cc1ccc(S(=O)(=O)Nc2cccc(CCC(=O)c3cnc4sc(C)c(C)n34)c2)cc1 | 180 to 181
COC[C@@H]1C(=O)Nc2ccc(C(F)(F)F)cc2C[C@@H]1c1ccc(OC)cc1 (relative stereo) | 220 to 228
O=S(=O)(NCCCN1CCC(Oc2ccc(Cl)c(Cl)c2)CC1)c1ccc(-c2ccccn2)s1 | 115
COc1ccc(S(=O)(=O)N2CCc3cccc(-c4ccc(C#N)cc4)c32)cc1 | 157 to 159
CCCCC(=N)NC(=S)Nc1cccc(Cl)c1 | 142 to 145
Clc1ccc2nc(-c3ccccc3)cc(Cl)c2c1 | 114 to 116
Cc1ccc(C#Cc2ccc3c(c2)C(C)(C)CCC3(C)C)cc1 | 99

Compound | melting point [°C]
O=C(NC1CCC2(O)C3Cc4ccc(O)c5c4C2(CCN3CC2CC2)C1O5)c1ccccc1 (stereo not given) | 182 to 185
O=[N+]([O-])c1ccc2c(c1)S(=O)(=O)NCN2CC(F)(F)F | 191 to 193
O=C(CCl)COc1c(Cl)cc(Cl)cc1Cl | 55
Nc1cccnc1Nc1ccccc1C(=O)c1cccc(F)c1 | 135 to 137
Cc1cc2c(-c3ccccc3Cl)c(C(=O)O)c(=O)n(C)c2cc1C | 251 to 252
COCn1c(-c2nccs2)cc2cccc(NS(=O)(=O)c3cccs3)c21 | 95 to 97
NS(=O)(=O)OCCCOc1ccccc1 | 83 to 85
N#CCCCCCCn1c(-c2ccccc2)nc(-c2ccccc2)c1-c1ccccc1 | 104 to 106
CC(C)(C)OC(=O)N1CCC(Nc2ccc3nc(NC(=O)c4ccc(C(C)(C)C)cc4)cn3n2)C1 (stereo not given) | 264 to 265
O=C1C(=CNCCO)Cc2cc(Cl)ccc21 | 164 to 166
Cc1nc(-c2ccc(O)cc2)cc(-c2c(Cl)ccc(Cl)c2Cl)c1C#N | 191 to 195
O=C1Nc2c(F)cc(CN3C(=O)CSC3=O)cc2C1=Cc1cc(CN2CCOCC2)c[nH]1 | 246 to 248
Nc1sc2c(c1C(=O)c1ccc3ccccc3c1)CCC2 | 178 to 180
C[Si](C)(C)CCCCCCCCCCCNc1ccc(C(=O)O)cc1 | 121 to 122
Cc1cc(C)n(-c2nc(NC3Cc4ccccc4C3)cc(N3CCOCC3)n2)n1 | 66 to 70
O=C1COc2ccc(Br)cc2C(=O)C1 | 110 to 112
CNc1ccc(-c2nc3c4ccccc4ccc3n2C)cc1 | 225 to 227
CCOC(=O)c1cccc(-c2ccc(Cl)c3cc(CBr)sc23)c1 | 143 to 144
COC(=O)[C@H](O)[C@@H](NC(=O)OC(C)(C)C)c1ccc(F)cc1 | 125
CCN(C=O)c1nc2ccc(CCc3ccco3)cc2o1 | 54 to 58
Cn1cc(-c2ncc(-c3ccc4cc(O)ccc4c3)o2)c2ccccc21 | 188 to 190
CC#CCn1c(Cl)nc2c1c(=O)n(C)c(=O)n2C | 105 to 108
O=C(CN1C(=O)c2ccccc2C1=O)Nc1ccccc1C(=O)N1CCCc2ccccc21 | 130
Cc1cccc(CC(=O)O)c1OCc1nc(OC(C)C)c(C(=O)NCc2ccc(Cl)cc2Cl)s1 | 125 to 126
COC(=O)C1=CC2=CCC3C(CCC4(C)C(C(=O)c5ccc(O)cc5)CCC34)C2(C)CC1 (stereo not given) | 208 to 210

Compound | melting point [°C]
Cc1cc2ccc(CCCCCN3CCN(c4cccc(Cl)c4Cl)CC3)nc2[nH]c1=O | 157 to 158
COc1ccc(-c2nn(Cc3ccncc3)c(=O)cc2-c2ccc(Cl)cc2)cc1 | 142 to 143
Nc1c(CCO)cccc1C(O)c1ccc(Br)cc1 (stereo not given) | 128 to 129
Cc1ccsc1CN(O)C(N)=O | 110
COc1ccc(C=C(C=O)C(C=O)=Cc2ccc(OC)c(OC)c2)cc1OC | 149 to 150
COc1ccc(O)c(C(=O)c2oc3ccc(Cl)cc3c2N)c1 | 202 to 205
CC1C(=NO)CC2(O)C3Cc4ccc(O)c5c4C2(CCN3C)C1O5 (stereo not given) | 115 to 116
CC(=O)Nc1ccc(S(=O)(=O)NCc2cc3c(ccc4cnn(C[C@H](C)N)c43)o2)cc1 | 80 to 85
CCOC(=O)N1CC[C@H](O)[C@@H]1C(c1ccccc1)c1ccccc1 (relative stereo) | 104 to 105
CC(C)OC(=O)c1ccc(OCC(=NO)c2ccc3c(c2)C(C)(C)CCC3(C)C)cc1O | 130
CN(C)[C@H]1CCN(c2c(-c3ccccc3)cc(C#N)c3oc(C(C)(C)C)cc23)C1 | 46 to 48
NCCCc1c[nH]c(-c2ccc(F)cc2)c1-c1ccncc1 | 198 to 199
CCCc1c(OCc2ccccc2)ccc2c1OC(C(=O)OC)(C1CC1C(=O)OC)CC2 (stereo not given) | 82 to 84
O=C(Nc1nccs1)c1nc(-c2ccc(N3CCCCCC3)cc2)[nH]c1-c1ccc(Cl)cc1 | 246 to 247
CCOC(=O)C1CCc2cc(Cc3cnc(N)s3)ccc2C1 (stereo not given) | 147 to 149
NN1CCC(Cc2ccc(Cl)cc2)CC1 | 49 to 51
CCCCCCCCCCCCc1ccccc1C(SCCCC(=O)O)C(=O)O (stereo not given) | 58 to 59
CCCCCCCc1c(C)[nH]c(C(=O)OCC)c1C | 47 to 49
CCCn1nc2c(N)nc3ccccc3c2c1CC1(O)CCC1 | 191 to 193
COC1(c2cc(F)cc(Sc3ccc(C(=NO)C(F)(F)F)cc3)c2)CCOCC1 | 131 to 133
CCCC(CCC)C(=O)OC1N=C(c2ccccc2Cl)c2cc(Cl)ccc2NC1=O (stereo not given) | 191 to 193
COc1ccc2oc(-c3ccc(O)cc3C)cc2c1 | 149 to 154
Cc1nc(COc2ccc(Cl)cc2)sc1C(=O)N[C@H](C)[C@](O)(Cn1cncn1)c1ccc(F)cc1F | 134 to 135
COc1ccc(-c2cccc3nc(Nc4cc(OC)c(OC)c(OC)c4)oc23)cn1 | 192 to 193
CC(c1oc2ccccc2c(=O)c1-c1cccc(F)c1)n1nc(-c2ccc(N3CCOCC3)nc2)c2c(N)ncnc21 (stereo not given) | 269 to 271
